Structures are written as SMILES. ≈ marks a conversion by molar mass, not a printed value.

Here are results for 3 compounds from patent US20260008752A1, “POLYMORPHIC FORMS OF FLORBETAPIR PRECURSOR AV-105” (ELI LILLY AND COMPANY, priority 2022, published 2026).

What all share (type): physicochemical
Data set [1] is described as follows: Differential scanning calorimetry (heat-of-fusion rule). Conditions: at all temperatures; forms monotropically related. As for the experimental part: (onset) with a heat of fusion of 78.9 J/g (FIG. 4). […] This is consistent with the screen findings, where conversion of Form A into Form B has been observed in a wide temperature range, between 2-8° C. and 45° C.
(In DSC, transitions show as peaks or steps in heat flow.)

Data set [2] is described as follows: Long term slurry experiments (solid form by XRPD after ~2 weeks). The method, then: Samples of starting material were suspended in specified solvents and triturated at specified temperatures. After approximately 24 hours, suspensions were transferred into Spin-X centrifuge tubes equipped with solids 0.45-μm nylon filters and centrifuged. Solids separated were resuspended in fresh solvents and the agitation was continued for a total of 2 weeks. Solids were isolated as described above and analyzed by XRPD.
(§1) Unless otherwise specified, solids of AV-105 were composed of Form A and were agitated in specified solvents at specified temperatures. Solvents were replaced after approximately 24 hours, where possible. After ˜2 weeks, solids were separated from supernatants via centrifugation with filtration and analyzed by XRPD. Solubilities were evaluated as a single, small scale measurement via gravimetric method using supernatants separated from the solids. Organic solvents used are anhydrous. […] Approximate solvent ratios are expressed in % by volume. Temperatures and duration of experiments are approximate.

The nature of data set [3]: Equilibrium solubility, gravimetric, from slurry supernatants. Conditions: thermodynamic from solid. As for the experimental part: Measured aliquots of supernatants isolated from the solids were placed in pre-weighed TGA pans for evaporation.
as §1

For the compound `Cc1ccc(S(=O)(=O)OCCOCCOCCOc2ccc(/C=C/c3ccc(N(C)C(=O)OC(C)(C)C)cc3)cn2)cc1` [Form B], the “Relative thermodynamic stability from DSC (heat-of-fusion rule)” value in data set [1] is recorded as “more stable than Form A”. Also, the “Thermodynamic stability from slurry experiments” value in data set [2] (between 2-8° C. and 45° C.) is given as “thermodynamically the more stable form”.

What is called solubility is the concentration that dissolves in the medium under given conditions. As to `Cc1ccc(S(=O)(=O)OCCOCCOCCOc2ccc(/C=C/c3ccc(N(C)C(=O)OC(C)(C)C)cc3)cn2)cc1` [AV-105], the “XRPD Results/observations” value in data set [2] (ACN/water 50/50, Aw 0.90, RT, start Form A, ~2 weeks slurry) is on record as “Form B”; in data set [2] (CPME, 2-8° C., start Form A, ~2 weeks slurry), “Form B”; in data set [2] (CPME, RT, start Form A, ~2 weeks slurry) it was “Form B”; in data set [2] (EtOAc/heptane 40/60, 2-8° C., start Form A, ~2 weeks slurry), “Form B”; in data set [2] (EtOAc/heptane 40/60, 35° C., start Form A, ~2 weeks slurry), “Form B”; in data set [2] (EtOAc/heptane 40/60, RT, start Form A, ~2 weeks slurry) it was “Form B”. In addition, the “XRPD Results/observations” value in data set [2] (EtOH, 2-8° C., with solvent replacement, start Form A) is reported as “Form B”; in data set [2] (EtOH, 45° C. (a), starting material mixture of Form A/Form B), “Yellow gel”; in data set [2] (EtOH, 45° C., start Form A), “Yellow solution,”; in data set [2] (EtOH, RT, with solvent replacement (a), starting material mixture of Form A/Form B) it was “Form B”; in data set [2] (EtOH, RT, with solvent replacement, start Form A) it was “Form B”; in data set [2] (IPA, 45° C., start Form A), “Form B”. Moreover, the “XRPD Results/observations” value in data set [2] (IPA, RT, with solvent replacement, start Form A) is listed as “Form B”; in data set [2] (IPrOAc, 35° C., start Form A), “Form B”; in data set [2] (IPrOAc, RT, start Form A) it was “Form B”; in data set [2] (MIBK/heptane 40/60, RT, start Form A), “Form B”; in data set [2] (MIBK, 2-8° C., start Form A) it was “Form B”; in data set [2] (MIBK, 35° C., start Form A) it was “Form B”. The “XRPD Results/observations” value in data set [2] (MIBK, RT, start Form A) was “Form B”; in data set [2] (MTBE, RT, start Form A), “Form B”; in data set [2] (MeOH, 2-8° C., with solvent replacement, start Form A), “Form B”; in data set [2] (MeOH, 45° C., start Form A), “Orange gel”; in data set [2] (MeOH, Freezer, start Form A) it was “Form B + small”; in data set [2] (MeOH, RT, with solvent replacement, start Form A), “Form B”. Moreover, the “XRPD Results/observations” value was “Form B” in data set [2] (THF/cyclohexane 30/70, 2-8° C., start Form A); “Form B” in data set [2] (THF/cyclohexane 30/70, RT, start Form A); “Orange gel after” in data set [2] (Water, 70° C., start Form A); “Form A” in data set [2] (Water, RT, start Form A). Also, the solubility turned out to be 2 mg/mL (≈ 3.26 mM) in data set [3] (ACN/water 50/50 slurry supernatant, aqueous with cosolvent or surfactant or cyclodextrin, ACN/water 50/50, Aw 0.90, RT, solid Form B); 25 mg/mL (≈ 40.8 mM) in data set [3] (CPME slurry supernatant, 2 °C, organic solvent or mixture, CPME, 2-8° C., solid Form B); 47 mg/mL (≈ 76.7 mM) in data set [3] (CPME slurry supernatant, organic solvent or mixture, CPME, RT, solid Form B); 6 mg/mL (≈ 9.79 mM) in data set [3] (EtOAc/heptane 40/60 slurry supernatant, 2 °C, organic solvent or mixture, EtOAc/heptane 40/60, 2-8° C., solid Form B); 34 mg/mL (≈ 55.5 mM) in data set [3] (EtOAc/heptane 40/60 slurry supernatant, 35 °C, organic solvent or mixture, EtOAc/heptane 40/60, solid Form B); 27 mg/mL (≈ 44.1 mM) in data set [3] (EtOAc/heptane 40/60 slurry supernatant, organic solvent or mixture, EtOAc/heptane 40/60, RT, solid Form B). The solubility in data set [3] (EtOH slurry supernatant, 2 °C, organic solvent or mixture, EtOH, 2-8° C., with solvent replacement, solid Form B) worked out at 3 mg/mL (≈ 4.9 mM); in data set [3] (EtOH slurry supernatant, organic solvent or mixture, EtOH, RT, with solvent replacement (a), starting material mixture of Form A/Form B, solid Form B), 7 mg/mL (≈ 11.4 mM); in data set [3] (EtOH slurry supernatant, organic solvent or mixture, EtOH, RT, with solvent replacement, solid Form B), 7 mg/mL (≈ 11.4 mM); in data set [3] (IPA slurry supernatant, 45 °C, organic solvent or mixture, IPA, solid Form B), 44 mg/mL (≈ 71.8 mM); in data set [3] (IPA slurry supernatant, organic solvent or mixture, IPA, RT, with solvent replacement, solid Form B), 4 mg/mL (≈ 6.53 mM); in data set [3] (IPrOAc slurry supernatant, 35 °C, organic solvent or mixture, IPrOAc, solid Form B), 232 mg/mL (≈ 379 mM). Moreover, the solubility in data set [3] (IPrOAc slurry supernatant, organic solvent or mixture, IPrOAc, RT, solid Form B) amounted to 93 mg/mL (≈ 152 mM); in data set [3] (MIBK slurry supernatant, 2 °C, organic solvent or mixture, MIBK, 2-8° C., solid Form B), 128 mg/mL (≈ 209 mM); in data set [3] (MIBK slurry supernatant, 35 °C, organic solvent or mixture, MIBK, solid Form B), 277 mg/mL (≈ 452 mM); in data set [3] (MIBK slurry supernatant, organic solvent or mixture, MIBK, RT, solid Form B), 137 mg/mL (≈ 224 mM); in data set [3] (MIBK/heptane 40/60 slurry supernatant, organic solvent or mixture, MIBK/heptane 40/60, RT, solid Form B), 15 mg/mL (≈ 24.5 mM); in data set [3] (MTBE slurry supernatant, organic solvent or mixture, MTBE, RT, solid Form B), 34 mg/mL (≈ 55.5 mM). For the same compound, the solubility in data set [3] (MeOH slurry supernatant, 2 °C, organic solvent or mixture, MeOH, 2-8° C., with solvent replacement, solid Form B) was found to be 6 mg/mL (≈ 9.79 mM); in data set [3] (MeOH slurry supernatant, organic solvent or mixture, MeOH, Freezer, solid Form B + small additional peaks), 5 mg/mL; in data set [3] (MeOH slurry supernatant, organic solvent or mixture, MeOH, RT, with solvent replacement, solid Form B), 13 mg/mL (≈ 21.2 mM); in data set [3] (THF/cyclohexane 30/70 slurry supernatant, 2 °C, organic solvent or mixture, THF/cyclohexane 30/70, 2-8° C., solid Form B), 55 mg/mL (≈ 89.8 mM); in data set [3] (THF/cyclohexane 30/70 slurry supernatant, organic solvent or mixture, THF/cyclohexane 30/70, RT, solid Form B), 370 mg/mL (≈ 604 mM).

On to `Cc1ccc(S(=O)(=O)OCCOCCOCCOc2ccc(/C=C/c3ccc(N(C)C(=O)OC(C)(C)C)cc3)cn2)cc1` [Form A], for which, in data set [2] (all solvent systems tested between 2-8° C. and 45° C.), the “Form change on slurrying in a variety of solvent systems” value is on record as “conversion to Form B”.
